# Where two headings read alike, the source gives them in different places. Positions of bridges follow the written chain, without caps; N, C: chain ends. Residues, ends and D or L forms follow the SMILES beside them. Chains are numbered I, II in the order given. No end group written: not given here.
# Experiments:
# [1] = test system: SARS-CoV-2 (HKU001a); details: for 50% inhibitory concentration IC50: HKU001a, 18 h; for antiviral activity in the low salt condition: low salt (30 mM, PBS/5), plaque reduction assay
# [2] = test system: spike-ACE2-mediated cell fusion in 293T cells; type: cell-based; details: 4H30 40 μM, bafilomycin A1 50 nM, remdesivir 80 μM; 6 h post coculture
# [3] = test system: fusion between 293T-Spike and Calu-3 cells; type: cell-based
# [4] = test system: endosomal acidification in VeroE6 cells; test: Endosomal acidification assay; type: cell-based; details: 4H30 25 μg/mL, bafilomycin A1 50 nM, pH-sensitive dye
# Method: Endosomal acidification was detected with a pH-sensitive dye (pHrodo green dextran, Invitrogen, Cat^# P35365) according to the manufacturer’s instructions as previously described but with slight modification. First, VeroE6 cells were treated with DMEM, 4H30 (25.0 μg/mL), or bafilomycin A1 (50.0 nM) at 4 °C for 15 min. Second, VeroE6 cells were added with 100 μg/mL of pH-sensitive dye and DAPI and then incubated at 4 °C for 15 min. Before taking images, cells were further incubated at 37 °C for 15 min and then cells were washed twice with PBS. Finally, PBS was added to cells and images were taken immediately with a confocal microscope (Carl Zeiss LSM 800, Germany).
# Supplementary Fig. S7. 4H30 could inhibit endosomal acidification in VeroE6 cells. VeroE6 cells were treated with pH-sensitive dye (green in low pH endosomes) and the indicated inhibitor 4H30 (25 μg/mL), bafilomycin A1 (BA1, 50 nM) or DMEM. Nuclei were stained as blue. Cell only without treatment was the negative control (Neg). Representative live-cell images were taken by confocal microscope. Experiments were repeated with two independent biological samples. […]
# [5] = test system: SARS-CoV-2; details: cited from earlier work
# [6] = test system: SARS-CoV-2 (B.1.617.2, Delta); test: Post-exposure antiviral assay in hamsters, Delta; type: in vivo; details: for syncytia formation in hamster lungs: Delta, compared with mock-treated hamsters; for inhibition of viral replication in hamster lungs (PFU/lung) / lung inflammation: in vivo, hamster
# [7] = mice; intranasal, three doses of 0.5 mg/kg within two days; compared with the PBS group; three mice in each group
# [8] = test system: SARS-CoV-2; test: Viral release assay; type: cell-based
# [9] = ELISA binding to heparan sulfate; details: HS 300, 75 ng coated on ELISA plate; detection by anti-HBD2; compared with BSA; n = 4
# [10] = target: spike-ACE2 binding (Severe acute respiratory syndrome coronavirus 2, UniProt P0DTC2); test: ELISA of spike binding to ACE2; details: ACE2 (150 ng) coated on ELISA plate; n = 6
# [11] = test system: SARS-CoV-2; test: Viral RNA copies in VeroE6 cell lysate after pretreatment (RT-qPCR); type: cell-based; details: virus pretreated by 4H30 (25 μg/mL), DMEM-treated virus 50-fold, n = 4
# [12] = test system: SARS-CoV-2 B.1.1.63; details: B.1.1.63, 18 h
# [13] = Cytotoxicity MTT assay, Calu-3; type: cell-based; details: human, Calu-3 cells, 24 h at 37 °C, DMEM with 1% FBS, n = 3, read-out: 50% toxicity concentration (TC50)
# Method: (§1) Cytotoxicity of peptides was determined by the detection of 50% cytotoxic concentration (CC50) using a tetrazolium-based colorimetric MTT assay. Briefly, cells were seeded in a 96-well cell culture plate at an initial density of 4 × 10^4 cells per well in DMEM supplemented with 10% FBS and incubated overnight. Cell culture media were removed and then DMEM supplemented with various concentrations of peptides and 1% FBS were added to each well. After 24 h incubation at 37 °C, MTT solution (5 mg/mL, 10 μL per well) was added to each well for incubation at 37 °C for 4 h. Then, 100 μL of 10% SDS in 0.01 M HCl was added to each well. After further incubation at room temperature with shaking overnight, the plates were read at OD570 using VictorTM X3 Multilabel Reader (PerkinElmer, USA). Cell culture wells without peptides were used as the experiment control and the medium only served as a blank control.
# [14] = test system: SARS-CoV-2; test: Viral attachment assay at 4 °C (RT-qPCR); type: cell-based
# [15] = test system: SARS-CoV-2; test: Plaque assay after 10,000-fold dilution of treated virus; type: cell-based
# [16] = test system: MERS-CoV; details: 18 h
# [17] = Cytotoxicity MTT assay, VeroE6; type: cell-based; details: VeroE6 cells, 24 h at 37 °C, DMEM with 1% FBS, n = 3, read-out: 50% toxicity concentration (TC50)
# Method: as §1
# [18] = test system: SARS-CoV-2 (B.1.1.63); test: Pre-exposure antiviral assay in hamsters; type: in vivo; details: compared with mock-treated hamsters
# [19] = test system: SARS-CoV-2 (B.1.1.63); test: Post-exposure antiviral assay in hamsters, B.1.1.63; details: hamster, in vivo
# [20] = intranasal, three doses of 0.5 mg/kg within two days; 4 days post-inoculation
# [21] = ELISA binding to chondroitin sulfate; details: CS 300, 75 ng coated on ELISA plate; detection by anti-HBD2; compared with BSA; n = 4
molecule,measurement,setting,value
CC[C@H](C)[C@H](NC(=O)[C@H](C)NC(=O)CN)C(=O)N[C@@H](CS)C(=O)N[C@@H](Cc1c[nH]cn1)C(=O)N1CCC[C@H]1C(=O)N[C@H](C(=O)N[C@@H](Cc1ccccc1)C(=O)N[C@@H](CS)C(=O)N1CCC[C@H]1C(=O)N[C@@H](CCCNC(=N)N)C(=O)N[C@@H](CCCNC(=N)N)C(=O)N[C@@H](Cc1ccc(O)cc1)C(=O)N[C@@H](CCCCN)C(=O)N[C@@H](CCC(N)=O)C(=O)N[C@H](C(=O)NCC(=O)N[C@H](C(=O)N[C@@H](CS)C(=O)NCC(=O)N[C@@H](CC(C)C)C(=O)N1CCC[C@H]1C(=O)NCC(=O)N[C@H](C(=O)N[C@@H](CCCCN)C(=O)N[C@@H](CS)C(=O)N[C@@H](CS)C(=O)N[C@@H](CCCCN)C(=O)N[C@@H](CCCCN)C(=O)N1CCC[C@H]1C(=O)O)[C@@H](C)O)[C@@H](C)O)[C@@H](C)CC)C(C)C [H30] (H-GAICHPVFCPRRYKQIGTCGLPGTKCCKKP-OH; N-terminus and C-terminus assumed),50% inhibitory concentration IC50,[1],> 25 µg/mL
same,antiviral activity in the low salt condition,[1],more effective in the low salt condition
CO/C1=C\C(C)=C\[C@@H](C)[C@@H](O)[C@@H](C)C/C(C)=C/C=C/[C@H](OC)[C@@H]([C@@H](C)[C@@H](O)[C@H](C)[C@@]2(O)C[C@@H](O)[C@H](C)[C@@H](C(C)C)O2)OC1=O [bafilomycin A1],"inhibition of spike-ACE2-mediated cell fusion, 293T-Spike + 293T-ACE2",[2],inhibition
same,"inhibition of cell-cell fusion, 293T-Spike + Calu-3",[3],could not inhibit
same,"cell fusion size, 293T-Spike + Calu-3","[3]; 4H30 125 μg/mL, BA1 50 nM, 6-8 h post-coculture, non-fusion cell size ~10 μm",> 40 μm
same,inhibition of endosomal acidification in live cells,[4],could inhibit
CN(C)C(=O)COC(=O)Cc1ccc(OC(=O)c2ccc(NC(=N)N)cc2)cc1 [camostat],inhibition of SARS-CoV-2 in hamsters by camostat alone,[5],not significantly inhibited
same,"inhibition of cell-cell fusion, 293T-Spike + Calu-3",[3],could show the inhibition
"CCC(CC)COC(=O)[C@H](C)N[P@](=O)(OC[C@H]1O[C@@](C#N)(c2ccc3c(N)ncnn23)[C@H](O)[C@@H]1O)Oc1ccccc1 [remdesivir, reference compound]",syncytia formation in hamster lungs,[6],syncytia could be easily observed
same,inhibition of viral replication in hamster lungs (PFU/lung),[6],33 fold
same,lung inflammation,[6],could reduce lung inflammation
same,"inhibition of spike-ACE2-mediated cell fusion, 293T-Spike + 293T-ACE2",[2],without inhibition
"I: GAICHPVFCPRRYKQIGTCGLPGTKCCKKPKK / II: GAICHPVFCPRRYKQIGTCGLPGTKCCKKPK / III: GAICHPVFCPRRYKQIGTCGLPGTKCCKKP / IV: GAICHPVFCPRRYKQIGTCGLPGTKCCKKP (amide I:31-IV:C, I:32-II:C, II:31-III:C; cysteines drawn unpaired) [4H30]",lung histopathology and body weight changes for 40 days,[7],no significant histopathological and consistent body weight change
same,inhibition of viral release,[8],significantly inhibit viral release
same,binding to heparan sulfate (HS),[9],effectively bind
same,syncytia formation in hamster lungs,[6],could reduce the syncytia formation
same,inhibition of viral replication in hamster lungs (PFU/lung),[6],9 fold
same,lung inflammation,[6],could reduce lung inflammation
same,effect on binding between the spike and ACE2,[10],did not directly affect the binding
same,viral RNA increase at 6 hpi compared with viral load at 1 hpi,[11],less than threefold
same,"inhibition of spike-ACE2-mediated cell fusion, 293T-Spike + 293T-ACE2",[2],could inhibit the fusion
same,IC50,[12],0.48 µg/mL
same,CC50 at 24 h,[13],> 400 µg/mL
same,SARS-CoV-2 attachment to A549 (ACE2–) and Calu-3 (ACE2+) cells,"[14]; cells treated with 12.5 μg/mL, attachment at 4 °C, compared with BSA- or DMEM-treated cells",significantly increased
same,SARS-CoV-2 attachment to VeroE6 cells,"[14]; virus pre-mixed with 25 μg/mL for 1 hour, attachment at 4 °C for 1 hour, n = 4",increase
same,inhibition of infection after dilution of treated virus,[15],significantly inhibit
same,"inhibition of cell-cell fusion, 293T-Spike + Calu-3","[3]; 4H30 125 μg/mL, bafilomycin A1 50 nM, camostat 100 μg/mL, 6-8 h post-coculture",could not inhibit
same,IC50,[16],1.01 µg/mL
same,50% inhibitory concentration IC50,[1],0.59 µg/mL
same,antiviral activity in the low salt condition,[1],significantly inhibited
same,inhibition of endosomal acidification in live cells,[4],could inhibit
same,CC50 at 24 h,[17],> 400 µg/mL
same,syncytia in bronchial epithelium,[18],reduced
same,"inhibition of SARS-CoV-2 replication in lungs, post-exposure",[19],significantly inhibit
same,pathological and body weight changes in hamsters,[20],did not cause significant pathological and body weight changes
same,binding to chondroitin sulfate (CS),[21],effectively bind

# Reference: article PMC9243000 (Cell Discovery, 2022)
